Test results reported in patent US6436922B1, “5,11-dihydrobenzo[b,e][1,4]oxazepine derivatives and pharmaceutical compositions containing the same” (Ajinomoto Co., Inc., priority 1996, dated 2002).
Each block holds one compound with its values, some of them ahead of it.

Tests used:
[1] = Acute toxicity test; conditions: ddy, mouse, in vivo, ip; male mice, i.p., mortality observed for 7 days; read-out: 50% lethal dose (LD50, mg/kg, i.p.)
[2] = test system: tail artery pressure; test: Decrease in the blood pressure in rats (tail cuff method); assay type: in vivo; conditions: rat, dose causing 20 mmHg decrease in blood pressure 1 hour after administration
Description: Decrease in the blood pressure in rats:
This test was conducted by the tail cuff method. That is, each of Crj:CD male rats (from 8 to 9 weeks old) had been warmed to fully expand the tail artery. The tail artery pressure was then measured immediately before, and 1 hour after, the oral administration of the test compound using a non-invasive blood pressure measuring device. In this test, nicardipine and Compound A were used as comparative substances. With respect to the decrease in the blood pressure, a dose at which to cause the decrease in the blood pressure by 20 mmHg from the blood pressure immediately before the administration was calculated as ED20 from the regression line of the decrease (mmHg) in the blood pressure relative to the logarism of the dose of the test compound. As is clear from Tables 2-1 and 2—2, the compound of the present invention has a higher selectivity for the intestinal tract than Compound A, and it can be an excellent agent of improving an abnormal moving function of the digestive tract.

[3] = Decrease in the body temperature of rats; assay type: in vivo; conditions: rat, 100 mg/kg p.o.; for change in body temperature 1 hour: rectal temperature after 1 hour; for change in body temperature 2 hour: rectal temperature after 2 hours; for change in body temperature 5 hour: rectal temperature after 5 hours
Description: Decrease in the body temperature of rats:
A suspension of 100 mg/kg of a test compound in 0.5% methyl cellulose was orally administered to each of Crj:CD male rats (from 7 to 8 weeks old), and the body temperature (temperature of the rectum) after 1, 2 or 5 hours was measured using a thermistor thermometer, and the difference in the body temperature between the compound of the present invention and the comparative substance is shown in Table 4.

[4] = test system: WRS-induced defecation; test: Inhibition of acceleration of stool excretion in a wrap restraint stress (WRS) model; assay type: in vivo; conditions: rat, p.o. 30 minutes before stress, stool over 1 hour, Litchfield-Wilcoxon method
Description: In-vivo test [effect of inhibiting acceleration of stool excretion in a wrap restraint stress (WRS) model]:
The test was conducted by the method of William et al. [Gastroenterology, 94, 611 (1988)]. That is, each of Crj:CD male rats (from 6 to 7 weeks old) was slightly etherized, and the fore shoulder, the foreleg and the chest thereof were wrapped with a paper tape to apply stress thereto. The rat was allowed to stand under stress for 1 hour, and the amount of stool excreted during that time was measured. The test compound was orally administered to the rat 30 minutes before applying the stress thereto. The normal group was etherized, and then allowed to stand for 1 hour without applying stress thereto. Thereafter, the amount of stool excreted was measured. In this test, nicardipine and Compound A were used as comparative substances. The 50% inhibition dose (ID50) relative to the increase in the […] of stool owing to WRS was calculated by the Litchfield-Wilcoxon method, and the results are shown in Table 2-1. In addition, and inhibition of test compounds (lomg/kg, p.o.) expressed as a percentage of control were determined and the results were shown in Table 2—2.

[5] = test system: rat pupillary diameter; test: Anticholinergic activity by mydriasis of rats; assay type: in vivo; conditions: for rat pupillary diameter (mm) 1 hour / rat pupillary diameter (mm) 2 hours / rat pupillary diameter (mm) 6 hours: 300 mg/kg p.o.; for rat pupillary diameter (mm) 1 hour: after 1 hour; for rat pupillary diameter (mm) 2 hours: after 2 hours; for rat pupillary diameter (mm) 6 hours: after 6 hours; for rat pupillary diameter (mm) before: before administration of 300 mg/kg p.o.
Description: Anticholinergic activity by mydriasis of rats: […] The diameter of the pupil after 1, 2 or 6 hours was measured using a stereoscopic microscope of 5x magnification.

[6] = test system: Crj:CD male rats; test: Test for a toxicity in continuous administration for 1 week; assay type: in vivo; conditions: rat, 100 mg/kg p.o. once daily for 1 week
Description: Test for a toxicity in continuous administration for 1 week:
A suspension of 100 mg/kg of the compound in Example 2 or 12 in 0.5% methyl cellulose was orally administered to each of Crj:CD male rats (6 weeks old) continuously for 1 week at a rate of one administration per day to observe general conditions, to measure the body weight, to conduct biochemical inspection of the blood, to measure the weights of the internal organs and to conduct pathological inspection.

melting point: 109 to 112 °C
SMILES: Cl.N#Cc1ccc(CCN2CCC[C@@H]2CN2c3ccccc3COc3ccccc32)cc1

melting point: 106 to 109 °C
SMILES: COc1ccc(CCN2CCC[C@H]2CN2c3ccccc3COc3ccccc32)cc1OC.Cl

melting point: 158 to 162 °C
SMILES: Cl.c1ccc2c(c1)COc1ccccc1N2C[C@@H]1CCCN1CCc1ccc2c(c1)OCO2

melting point: 164 to 166 °C
SMILES: COc1cccc(CCN2CCC[C@H]2CN2c3ccccc3COc3ccccc32)c1.Cl

melting point: 179 to 182 °C
SMILES: Cl.c1ccc(CCN2CCC[C@@H]2CN2c3ccccc3COc3ccccc32)cc1

melting point: 106 to 109 °C
SMILES: COc1ccc(CCN2CCC[C@@H]2CN2c3ccccc3COc3ccccc32)cc1OC.Cl

SMILES: COc1ccc(CCN2CCC[C@H]2CN2c3ccccc3CSc3ccccc32)cc1.Cl [Compound A, reference compound]
LD50 at 7 days [1]: 162 mg/kg
Hypotensive effect (ED20, mg/kg, p.o.) [2]: >100 mg/kg
change in body temperature 1 hour [3]: −0.5
change in body temperature 2 hour [3]: −0.6
change in body temperature 5 hour [3]: −0.5
Inhibitory effect on WRS-induced defecation (ID50, mg/kg, p.o.) [4]: 34.8 mg/kg
rat pupillary diameter (mm) 1 hour [5]: 2.18 mm
rat pupillary diameter (mm) 2 hours [5]: 2.27 mm
rat pupillary diameter (mm) 6 hours [5]: 2.62 mm
rat pupillary diameter (mm) before [5]: 0.85 mm

SMILES: COc1ccc(CCN2CCC[C@@H]2CN2c3ccccc3COc3ccccc32)cc1.Cl [Example 2, (R)-(+)-5,11-dihydro-5-[1-(4-methoxyphenethyl)-2-pyrrolidinylmethyl]-dibenzo[b,e][1,4]oxazepine hydrochloride]
LD50 at 7 days [1]: 175 mg/kg
toxicity findings (general conditions, body weight, blood biochemistry, organ weights, pathology) [6]: no remarkable change was observed
Hypotensive effect (ED20, mg/kg, p.o.) [2]: >1000 mg/kg
change in body temperature 1 hour [3]: 0
change in body temperature 2 hour [3]: −0.1
change in body temperature 5 hour [3]: −0.2
Inhibitory effect on WRS-induced defecation (ID50, mg/kg, p.o.) [4]: 3.1 mg/kg
rat pupillary diameter (mm) 1 hour [5]: 0.90 mm
rat pupillary diameter (mm) 2 hours [5]: 0.77 mm
rat pupillary diameter (mm) 6 hours [5]: 0.97 mm
rat pupillary diameter (mm) before [5]: 0.97 mm

SMILES: Cl.Fc1ccc(CCN2CCC[C@@H]2CN2c3ccccc3COc3ccccc32)cc1 [Example 4, (R)-(+)-5,11-dihydro-5-[1-(4-fluorophenethyl)-2-pyrrolidinylmethyl]dibenzo[b,e][1,4]oxazepine hydrochloride]
LD50 at 7 days [1]: > 200 mg/kg
Hypotensive effect (ED20, mg/kg, p.o.) [2]: >1000 mg/kg
change in body temperature 1 hour [3]: −0.3
change in body temperature 2 hour [3]: −0.2
change in body temperature 5 hour [3]: +0.1
Inhibitory effect on WRS-induced defecation (ID50, mg/kg, p.o.) [4]: 1.8 mg/kg
rat pupillary diameter (mm) 1 hour [5]: 0.70 mm
rat pupillary diameter (mm) 2 hours [5]: 0.57 mm
rat pupillary diameter (mm) 6 hours [5]: 0.70 mm
rat pupillary diameter (mm) before [5]: 0.80 mm

SMILES: COc1ccc(CCN2CCC[C@H]2CN2c3ccccc3COc3ccccc32)cc1.Cl [Example 12, (S)-(−)-5,11-dihydro-5-[1-(4-methoxyphenethyl)-2-pyrrolidinylmethyl]dibenzo[b,e][1,4]oxazepine hydrochloride]
LD50 at 7 days [1]: > 280 mg/kg
toxicity findings (general conditions, body weight, blood biochemistry, organ weights, pathology) [6]: no remarkable change was observed

SMILES: COC(=O)C1=C(C)NC(C)=C(C(=O)OCCN(C)Cc2ccccc2)C1c1cccc([N+](=O)[O-])c1 (centres unmarked) [nicardipine, reference compound]
Hypotensive effect (ED20, mg/kg, p.o.) [2]: 4.0 mg/kg
Inhibitory effect on WRS-induced defecation (ID50, mg/kg, p.o.) [4]: 6.8 mg/kg
